Results taken from paper PMC11117207, “Discovery of Antimicrobial Agents Based on Structural and Functional Study of the Klebsiella pneumoniae MazEF Toxin–Antitoxin System” (Antibiotics, 2024).

Tested on: K. pneumoniae MazEF complex
Assay: In vitro assay of MazEF complex disruption by peptides (RNase Alert fluorescence assay)
Assay type: biochemical, Klebsiella pneumoniae
Details: 20 μM peptide, 4 μM MazEF complex, 30 min at 37 °C; for disruption of the MazEF complex (RNase activity): 20 mM Tris pH 8.0, 200 mM NaCl, RFU of 4 μM MazF = 100%, of 4 μM MazEF ~0%, three independent experiments
Description: To validate the ribonuclease activity of MazF toxin, an RNase Alert Kit (IDT, Coralville, IA, USA) was used. The principle is as follows. In the normal state, a fluorophore is covalently attached to one end of a synthetic RNA strand and is quenched by a quencher group at the other end of the RNA strand. However, the synthetic RNA is digested and the quencher is released when the ribonuclease interacts with substrates. Then, the released fluorophore emits fluorescence at 520 nm upon excitation at 490 nm. The resulting relative fluorescence units (RFU) were detected using a SPECTRAmax GEMINI XS spectrofluorometer (Molecular Devices, San Jose, CA, USA). All experiments were performed in triplicate.
In addition to the disruption assay using small molecules, 10 short peptides that mimic the binding region between MazE and MazF were designed based on the tertiary crystal structure of the MazEF complex and purchased from ANYGEN (http://www.anygen.com, accessed on 21 April 2024) (Table 1). Among the peptides tested, six were designed to mimic the region on MazE where it binds to MazF, while the remaining four were designed to mimic the region on MazF where it binds to MazE. This design was chosen to investigate the interactions between MazE and MazF and their respective binding regions. The main principle and process were consistent with those of complex disruption by small molecules, which has been mentioned above. The concentration of the MazEF complex was fixed at 4 μM, and the concentration of competing peptides was 20 μM. Furthermore, all of the proteins and peptides used in this assay were prepared in 20 mM Tris, pH 8.0, and 200 mM NaCl. The MazEF complex was incubated with the peptides for 30 min at 37 °C before fluorescence measurement.

| Substance | disruption of the MazEF complex (RNase activity) | RNase activity compared with the related peptide (in words) |
| --- | --- | --- |
| DSQGKE [Peptide A, MazE-mimicking peptide DSQGKE (69–74)] | approximately 65% |  |
| YLCDSQGKEML [Peptide E, MazE-mimicking peptide […]; (66–76)] | 80−83% |  |
| KSLD [Peptide G, MazF-mimicking peptide KSLD (79–82)] |  | no significant difference |
| EYLCDSQGKE [Peptide C, MazE-mimicking peptide […]; (65–74)] |  | did not exhibit significant differences from Peptide A |
| KSLDWKAR [Peptide I, MazF-mimicking peptide KSLDWKAR (79–86)] |  | dramatic increase in RNase activity |
| YLCDSQGKE [Peptide B, MazE-mimicking peptide … (66–74)] |  | did not exhibit significant differences from Peptide A |
| EYLCDSQGKEML [Peptide F, MazE-mimicking peptide […]; (65–76)] | 80−83% |  |
| QVKSLD [Peptide H, MazF-mimicking peptide QVKSLD (77–82)] |  | no significant difference |
| QVKSLDWKAR [Peptide J, MazF-mimicking peptide […]; (77–86)] |  | dramatic increase in RNase activity |
